Laboratory results published in ChEMBL document CHEMBL2021867, “Systematic Chemical Mutagenesis Identifies a Potent Novel Apratoxin A/E Hybrid with Improved in Vivo Antitumor Activity” (ACS Med Chem Lett, 2011).
Calls of active or inactive are those of the source. The rule behind the calls is not given here.

Tests used:
[1] = target: Hepatocyte growth factor receptor (Homo sapiens) (UniProt P08581); experiment: Inhibition of Met expressed human HCT116 cells by immunoblotting assay; type: cell-based; settings: HCT-116
Mus musculus [2] = experiment: Toxicity in human HCT116 cells xenografted nu/nu mouse assessed as kidney histology changes at 0.25 mg/kg, ip dosed daily for over 2 weeks; type: organism-based, HCT-116; parameters: dose 0.25 mg/kg, route intraperitoneal; settings: in vivo, 336 h
Mus musculus [3] = experiment: Toxicity in human HCT116 cells xenografted nu/nu mouse assessed as weight loss at 0.25 mg/kg, ip dosed daily for over 2 weeks; type: organism-based, HCT-116; parameters: dose 0.25 mg/kg, route intraperitoneal; settings: in vivo, 336 h
Mus musculus [4] = experiment: Reduction in VEGFR2 level in tumor of human HCT116 cells xenografted in nu/nu mouse at 0.25 mg/kg, ip dosed daily for over 2 weeks by Western blot; type: functional, organism-based; parameters: dose 0.25 mg/kg; settings: HCT-116
Mus musculus [5] = experiment: Toxicity in human HCT116 cells xenografted nu/nu mouse assessed as body weight loss at > 0.375 mg/kg, ip measured post compound withdrawal; type: organism-based, HCT-116; parameters: dose 0.375 mg/kg, route intraperitoneal; settings: in vivo
Oryctolagus cuniculus [6] = organism: Oryctolagus cuniculus; experiment: Inhibition of cotranslational processing of in rabbit reticulocyte assessed as [35S-methionine] incorporation using canine pancreatic microsomal membranes by SDS-PAGE analysis; type: functional, microsomes; settings: Microsome
Mus musculus [7] = experiment: Reduction in VEGFR2 level in liver of human HCT116 cells xenografted in nu/nu mouse at 0.25 mg/kg, ip dosed daily for over 2 weeks by Western blot; type: functional, organism-based; parameters: dose 0.25 mg/kg; settings: HCT-116
Mus musculus [8] = experiment: Irreversible toxicity in human HCT116 cells xenografted nu/nu mouse at > 0.375 mg/kg, ip measured post compound withdrawal; type: organism-based, HCT-116; parameters: dose 0.375 mg/kg, route intraperitoneal; settings: in vivo
Mus musculus [9] = experiment: Reduction in PDGFRbeta level in tumor of human HCT116 cells xenografted in nu/nu mouse at 0.25 mg/kg, ip dosed daily for over 2 weeks by Western blot; type: functional, organism-based; parameters: dose 0.25 mg/kg; settings: HCT-116
HCT-116 = experiment: Antitumor activity against human HCT116 cells xenografted in nu/nu mouse model at 0.25 mg/kg, ip dosed daily for over 2 weeks; type: functional, organism-based; parameters: dose 0.25 mg/kg
Oryctolagus cuniculus [10] = organism: Oryctolagus cuniculus; experiment: Inhibition of cotranslational processing of human PDGFRalpha in rabbit reticulocyte assessed as [35S-methionine] incorporation using canine pancreatic microsomal membranes by SDS-PAGE analysis; type: functional, microsomes; settings: Microsome
Mus musculus [11] = experiment: Toxicity in human HCT116 cells xenografted nu/nu mouse assessed as liver histology changes at 0.25 mg/kg, ip dosed daily for over 2 weeks; type: organism-based, HCT-116; parameters: dose 0.25 mg/kg, route intraperitoneal; settings: in vivo, 336 h
Mus musculus [12] = experiment: Toxicity in human HCT116 cells xenografted nu/nu mouse assessed as body weight loss at > 0.375 mg/kg, ip; type: organism-based, HCT-116; parameters: dose 0.375 mg/kg, route intraperitoneal; settings: in vivo
Mus musculus [13] = experiment: Toxicity in human HCT116 cells xenografted nu/nu mouse assessed as mortality at > 0.375 mg/kg, ip measured post compound withdrawal; type: organism-based, HCT-116; parameters: dose 0.375 mg/kg, route intraperitoneal; settings: in vivo
Mus musculus [14] = experiment: Toxicity in human HCT116 cells xenografted nu/nu mouse assessed as mortality at > 0.375 mg/kg, ip; type: organism-based, HCT-116; parameters: dose 0.375 mg/kg, route intraperitoneal; settings: in vivo

Hepatocyte growth factor receptor (Homo sapiens), sequence (P08581 whole entry): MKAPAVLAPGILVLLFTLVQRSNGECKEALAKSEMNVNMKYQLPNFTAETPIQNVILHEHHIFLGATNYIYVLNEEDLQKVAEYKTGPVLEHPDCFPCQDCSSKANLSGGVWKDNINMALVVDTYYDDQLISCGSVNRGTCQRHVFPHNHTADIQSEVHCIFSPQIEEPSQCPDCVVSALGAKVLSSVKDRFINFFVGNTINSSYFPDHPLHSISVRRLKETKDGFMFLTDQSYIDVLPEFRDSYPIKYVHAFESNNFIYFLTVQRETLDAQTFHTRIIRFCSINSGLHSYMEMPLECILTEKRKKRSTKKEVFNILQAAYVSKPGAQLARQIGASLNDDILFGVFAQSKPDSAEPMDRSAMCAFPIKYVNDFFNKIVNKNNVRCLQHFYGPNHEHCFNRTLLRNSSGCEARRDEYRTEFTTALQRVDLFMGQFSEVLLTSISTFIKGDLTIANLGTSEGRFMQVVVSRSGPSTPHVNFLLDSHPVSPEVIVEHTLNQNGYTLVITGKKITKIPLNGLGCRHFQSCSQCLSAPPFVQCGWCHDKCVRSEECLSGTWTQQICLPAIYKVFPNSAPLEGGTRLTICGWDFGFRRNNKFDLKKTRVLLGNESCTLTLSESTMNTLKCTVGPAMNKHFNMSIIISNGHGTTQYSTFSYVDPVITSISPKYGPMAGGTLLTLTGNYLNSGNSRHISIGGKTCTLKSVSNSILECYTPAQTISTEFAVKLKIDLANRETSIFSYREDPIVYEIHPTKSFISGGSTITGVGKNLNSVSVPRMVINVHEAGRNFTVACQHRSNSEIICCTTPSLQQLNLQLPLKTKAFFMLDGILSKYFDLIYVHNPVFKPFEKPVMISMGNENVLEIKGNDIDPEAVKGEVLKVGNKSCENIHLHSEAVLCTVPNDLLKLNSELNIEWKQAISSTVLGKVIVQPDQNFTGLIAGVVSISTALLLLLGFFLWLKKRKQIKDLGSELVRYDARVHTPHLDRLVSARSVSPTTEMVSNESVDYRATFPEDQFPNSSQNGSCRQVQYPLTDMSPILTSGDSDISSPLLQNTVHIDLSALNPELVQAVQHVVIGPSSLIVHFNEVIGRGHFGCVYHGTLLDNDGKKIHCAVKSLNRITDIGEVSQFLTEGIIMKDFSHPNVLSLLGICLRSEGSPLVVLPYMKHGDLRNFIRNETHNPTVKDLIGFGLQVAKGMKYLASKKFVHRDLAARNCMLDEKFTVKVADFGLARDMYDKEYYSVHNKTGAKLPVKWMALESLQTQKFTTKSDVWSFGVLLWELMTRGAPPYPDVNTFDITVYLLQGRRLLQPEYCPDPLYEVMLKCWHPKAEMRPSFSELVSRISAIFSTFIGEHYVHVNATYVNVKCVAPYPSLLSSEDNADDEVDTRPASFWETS

CC[C@H](C)[C@H]1C(=O)N(C)[C@@H](C)C(=O)O[C@H](C(C)(C)C)C[C@@H](C)C[C@H](O)[C@H](C)C2=N[C@@H](/C=C(\C)C(=O)N[C@@H](Cc3ccc(OC)cc3)C(=O)N(C)[C@@H](C)C(=O)N1C)CS2
inhibition [1]: Active

CC[C@H](C)[C@H]1C(=O)N2CCC[C@H]2C(=O)O[C@H](C(C)(C)C)C[C@@H](C)C[C@H](O)[C@H](C)C2=N[C@@H](/C=C(\C)C(=O)N[C@@H](C)C(=O)N(C)[C@@H](C)C(=O)N1C)CS2
inhibition [1]: inactive

COc1ccc(C[C@@H]2NC(=O)/C(C)=C/[C@H]3CSC(=N3)[C@@H](C)[C@@H](O)C[C@H](C)C[C@@H](C(C)(C)C)OC(=O)[C@@H]3CCCN3C(=O)[C@H](C)N(C)C(=O)[C@H](C)N(C)C2=O)cc1
inhibition [1]: inactive

CC[C@H](C)[C@H]1C(=O)N2CCC[C@H]2C(=O)O[C@H](C(C)(C)C)C[C@@H](C)C[C@H](O)[C@H](C)C2=N[C@@H](CCC(=O)N[C@@H](Cc3ccc(OC)cc3)C(=O)N(C)[C@@H](C)C(=O)N1C)CS2 [APRATOXIN S4]
Activity (Mus musculus [2]): Non-toxic | Activity (Mus musculus [3]): Non-toxic | Activity (Mus musculus [4]): Active | Activity (Mus musculus [5]): Non-toxic | inhibition (Oryctolagus cuniculus [6]): Dose-dependent effect | Activity (Mus musculus [7]): inactive | Activity (Mus musculus [8]): Non-toxic | Activity (Mus musculus [9]): Active | Activity (HCT-116): Active | inhibition (Oryctolagus cuniculus [10]): Active | Activity (Mus musculus [11]): Non-toxic | Activity (Mus musculus [12]): Non-toxic | Activity (Mus musculus [13]): Non-toxic | Activity (Mus musculus [14]): Non-toxic
